# Molecular target: T1, SET7 (Homo sapiens, UniProt Q8WTS6)
# T1 sequence (Q8WTS6 1-366): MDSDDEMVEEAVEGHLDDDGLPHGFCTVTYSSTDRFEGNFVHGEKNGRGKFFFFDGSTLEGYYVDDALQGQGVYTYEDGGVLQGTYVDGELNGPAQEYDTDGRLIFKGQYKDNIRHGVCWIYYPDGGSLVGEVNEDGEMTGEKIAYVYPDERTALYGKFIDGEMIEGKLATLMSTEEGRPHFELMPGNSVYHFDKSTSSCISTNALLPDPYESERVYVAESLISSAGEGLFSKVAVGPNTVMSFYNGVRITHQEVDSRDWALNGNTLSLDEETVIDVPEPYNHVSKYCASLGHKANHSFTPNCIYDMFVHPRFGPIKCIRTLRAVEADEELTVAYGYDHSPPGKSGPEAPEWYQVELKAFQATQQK
# Assay: 3H-labeled radioisotope methylation assay
# Type: biochemical
# Conditions: 3H radioactive methylation assay
# Description: As for ^3Hradioactive methylation assay, SAH was used as the reference compound and the compounds were tested in 10 concentrations in duplicate in modified Tris buffer (1× assay buffer). The following materials were purchased: SET7 (Enzo, Cat. No. ALX-201-178, New York, NY, USA), [^3H]-SAM (PerkinElmer Inc., Lot. No. 1790854), SAH (Sigma, Cat. No. A9384-25MG, St. Louis, MO, USA) and 384-well Flashplate (Perkin Elmer, Cat. No. SMP410A001PK,). The compounds were transferred to the assay plate by Echo 550 with 3-fold dilution in 100% DMSO where the final DMSO concentration is 1%. Then the enzyme solution was transferred to the assay plate and 1× assay buffer was transferred for low control. After 15 min incubation at room temperature, peptide and [^3H]-SAM mix solution was transferred to each well to start the reaction. The cold SAM in 1× buffer was added to each well to stop the reaction after 60 min incubation at room temperature. 25 μL of the whole reaction system per well was transferred to Flashplate which was washed with dH2O and 0.1% Tween-20 for three times after 60 min incubation. The data was read on Microbeta. All the inhibition assays are performed in duplicate.
row,IC50 [µM],Compound
1,5.4,"Nc1ncnc2c1ncn2[C@@H]1O[C@H](CSCC[C@H](N)C(=O)O)[C@@H](O)[C@H]1O [SAH, reference compound]"

# Test system: SET7
# Assay: not given
# Conditions: SET7, previous research of the authors; cited from earlier work
row,Compound,IC50 [µM]
1,CCOC(=O)c1c(N)sc(C(=O)Nc2cccc([N+](=O)[O-])c2)c1C [DC-S239],4.6
2,COC(=O)c1c(N)sc(C(=O)Nc2cccc([N+](=O)[O-])c2)c1C [DC-S238],4.9

# Same assay, conditions: SET7; cited from earlier work
row,Compound,IC50 [µM]
1,O=C([C@@H](Cc1cccc(C(F)(F)F)c1)NS(=O)(=O)c1cc(F)c2c(c1)CCNC2)N1CCCC1 [(R)-PFI-2],0.002

# Molecular target: T1, SET7
# Assay: AlphaLISA SET7 inhibition assay
# Type: biochemical
# Conditions: AlphaLISA assay, SAR discussion
# Description: AlphaLISA assays were applied to determine the inhibitory activity targeting SET7. The purified SET7 protein was incubated in modified Tris buffer in 384-well plates (Perkin Elmer, Cat. No. 6007299, Waltham, MA, USA) at room temperature for 15 min. The compounds were transferred to the assay plate using Echo in 100% DMSO, and substrate solution was added to each well to start the reaction. Acceptor and donor beads were added and incubated for 60 min at room temperature, shielded from light. The endpoint was evaluated with EndSpire in Alpha mode. The experimental data was fitted in GraphPad Prism 5 to obtain inhibition values using the equation as follows:(1) Inhibition %= Max−Siginal/Max−Min×100%
row,activity against SET7 (in words),Compound
1,no activity,COc1cc(/C=N/NC(=O)c2ccc(-c3ccccc3)cc2)c([N+](=O)[O-])cc1OC [DC-S305]

# Same assay, conditions: AlphaLISA assay, SET7
row,Compound,IC50 [µM]
1,COc1cc(/C=N/NC(=O)c2ccc(-c3ccccc3)cc2)ccc1OC(C)=O [DC-S306],20
2,O=C(NNC(=O)c1ccc([N+](=O)[O-])cc1)c1ccc(-c2ccccc2)cc1 [DC-S334],9.9
3,O=C(CCC(=O)N/N=C/c1cc([N+](=O)[O-])ccc1Cl)NCc1ccccc1 [DC-S314],46

# Other lines, results leading:
row,IC50 [µM],Compound
1,3.4,O=C(NN=Cc1cc2c(cc1Br)OCO2)c1ccc([N+](=O)[O-])cc1 [DC-S351]
2,3.7,O=C(NN=Cc1ccc(-c2ccccc2Cl)o1)c1ccc([N+](=O)[O-])cc1 [DC-S364]

# Same assay, conditions: AlphaLISA assay, SET7, 100 μM; read-out: Inhibition Ratio at 100 μM/%
row,Compound,inhibition at 100 µM [%]
1,O=C(NN=Cc1ccccc1OC(=O)c1ccc([N+](=O)[O-])cc1)c1ccc([N+](=O)[O-])cc1 [DC-S355],20
2,O=C(NNC(=O)c1cccc([N+](=O)[O-])c1)c1ccc(-c2ccccc2)cc1 [DC-S335],12
3,O=C(NNC(=O)c1ccc(-c2ccccc2)cc1)c1ccc(F)cc1 [DC-S339],-6
4,O=C(N/N=C/c1cc([N+](=O)[O-])ccc1Cl)C(c1ccccc1)c1ccccc1 [DC-S315],46
5,COc1cc(/C=N/NC(=O)c2ccc(-c3ccccc3)cc2)ccc1OC(C)=O [DC-S306],94
6,O=C(NNC(=O)c1ccc([N+](=O)[O-])cc1)c1ccc(-c2ccccc2)cc1 [DC-S334],96
7,O=C(NN=Cc1cc([N+](=O)[O-])ccc1N1CCCCC1)c1ccc([N+](=O)[O-])cc1 [DC-S354],35
8,O=C(N/N=C/c1ccc(Cl)c([N+](=O)[O-])c1)c1ccc(-c2ccccc2)cc1 [DC-S304],44
9,CCOc1ccc(/C=N/NC(=O)c2ccc(-c3ccccc3)cc2)c(OCC)c1 [DC-S310],-6
10,O=C(N/N=C/c1c(Cl)cccc1Cl)c1ccc(-c2ccccc2)cc1 [DC-S313],-6
11,O=C(NNC(=O)C(F)(F)F)c1ccc(-c2ccccc2)cc1 [DC-S342],-13
12,O=C(NNC(=O)c1cccc(Cl)c1)c1ccc(-c2ccccc2)cc1 [DC-S338],1
13,O=C(CCc1ccccc1)NNC(=O)c1ccc(-c2ccccc2)cc1 [DC-S340],-6
14,COc1ccc(C(=O)NNC(=O)c2ccc(-c3ccccc3)cc2)cc1 [DC-S336],49
15,COc1ccc(/C=N/NC(=O)c2ccc(-c3ccccc3)cc2)c(OC)c1Br [DC-S308],7
16,COC(=O)N/N=C/c1cc([N+](=O)[O-])ccc1Cl [DC-S318],17

row,Compound,inhibition at 100 µM [%]
1,O=C(N/N=C/c1cc([N+](=O)[O-])ccc1Cl)c1ccc(O)cc1O [DC-S321],9
2,COc1cc(/C=N/NC(=O)c2ccc(-c3ccccc3)cc2)c([N+](=O)[O-])cc1OC [DC-S305],-5
3,O=C(N/N=C/c1cc([N+](=O)[O-])ccc1Cl)c1cccc(O)c1 [DC-S316],37
4,O=C(N/N=C/c1cccc(Cl)c1Cl)c1ccc(-c2ccccc2)cc1 [DC-S312],-3
5,O=C(CCC(=O)N/N=C/c1cc([N+](=O)[O-])ccc1Cl)NCc1ccccc1 [DC-S314],77
6,Cc1cccc(/C=N/NC(=O)c2ccc(-c3ccccc3)cc2)c1 [DC-S309],-5
7,O=C(NNC(=O)c1ccc(-c2ccccc2)cc1)c1ccccc1 [DC-S337],1
8,O=C(NN=Cc1cc2c(cc1[N+](=O)[O-])OCO2)c1ccc([N+](=O)[O-])cc1 [DC-S349],-1
9,O=C(NN=Cc1cccc(Cl)c1)c1ccc([N+](=O)[O-])cc1 [DC-S345],29
10,Nc1ccccc1C(=O)N/N=C/c1cc([N+](=O)[O-])ccc1Cl [DC-S319],14
11,COc1ccc(/C=N/NC(=O)c2ccc(-c3ccccc3)cc2)cc1O [DC-S307],8
12,O=C(NNC(=O)c1ccccc1C(=O)O)c1ccc(-c2ccccc2)cc1 [DC-S341],-10
13,O=C(NN=Cc1ccc(Cl)s1)c1ccc([N+](=O)[O-])cc1 [DC-S344],32
14,Nc1ccc(C=NNC(=O)c2ccc([N+](=O)[O-])cc2)cc1 [DC-S346],21
15,O=C(N/N=C/c1cc([N+](=O)[O-])ccc1Cl)c1ccc(O)cc1 [DC-S320],11

# Now from value to compound:
row,inhibition at 100 µM [%],Compound
1,96,O=C(NN=Cc1cc2c(cc1Br)OCO2)c1ccc([N+](=O)[O-])cc1 [DC-S351]
2,10,O=C(NN=Cc1ccc[nH]1)c1ccc([N+](=O)[O-])cc1 [DC-S347]
3,6,O=C(NN=Cc1cn(Cc2ccc(Cl)cc2Cl)c2ccccc12)c1ccc([N+](=O)[O-])cc1 [DC-S350]
4,-11,Cc1c(C=NNC(=O)c2ccc([N+](=O)[O-])cc2)cnn1C [DC-S348]
5,-4,COc1cc(C=NNC(=O)c2ccc([N+](=O)[O-])cc2)ccc1OC(C)=O [DC-S362]
6,39,COc1cc(OC)c(C=NNC(=O)c2ccc([N+](=O)[O-])cc2)cc1Br [DC-S352]
7,4,COc1ccc(-c2ccc(C=NNC(=O)c3ccc([N+](=O)[O-])cc3)o2)cc1Cl [DC-S360]
8,54,O=C(NN=Cc1ccc(-c2ccccc2Cl)o1)c1ccc([N+](=O)[O-])cc1 [DC-S364]
9,35,COc1ccc(C=NNC(=O)c2ccc([N+](=O)[O-])cc2)cc1 [DC-S353]
10,10,COc1ccc(C(=O)NN=Cc2ccc([N+](=O)[O-])cc2)cc1OC [DC-S365]
11,-1,O=C(NN=Cc1ccc([N+](=O)[O-])cc1)c1cccc(Cl)c1 [DC-S367]
12,-1,COc1ccc2ccccc2c1C=NNC(=O)c1ccc([N+](=O)[O-])cc1 [DC-S361]
13,9,O=C(NN=Cc1ccc([N+](=O)[O-])cc1)c1ccc(CSc2ccccc2)cc1 [DC-S366]
14,5,O=C(NN=Cc1c(OC(=O)c2ccc(Cl)cc2)ccc2ccccc12)c1ccc([N+](=O)[O-])cc1 [DC-S359]
15,6,O=C(NN=Cc1ccccc1OC(=O)c1ccc(Cl)cc1)c1ccc([N+](=O)[O-])cc1 [DC-S358]
16,-15,O=C(NN=Cc1ccccc1OCc1cccc(Br)c1)c1ccc([N+](=O)[O-])cc1 [DC-S363]
17,17,O=C(NN=Cc1c[nH]nc1-c1ccc(Cl)cc1)c1ccc([N+](=O)[O-])cc1 [DC-S356]
18,13,COc1ccc(C=NNC(=O)c2ccc([N+](=O)[O-])cc2)c2ccccc12 [DC-S357]
